From ChEMBL document CHEMBL1201862, “PubChem BioAssay data set” (2004)
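How tested: cells in 96-well plates exposed to compound for 48 hours at five concentrations. GI50 marks 50% less growth.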 Calls of active or inactive are those of the source. Rule as the data show it: active = GI50 up to about 1.1 µM and inactive = higher.

Columns and labels:
Experiment in all cases: growth of human tumour cells (NCI), 48 h
A549 = system: A549
ACHN = system: ACHN
CAKI-1 = system: CAKI-1
CCRF-CEM = system: CCRF-CEM
DU-145 = system: DU-145
HCT-15 = system: HCT-15
Hs-578T = system: Hs-578T
K562 = system: K562
KM12 = system: KM12
LOX IMVI = system: LOX IMVI
OVCAR-5 = system: OVCAR-5
PC-3 = system: PC-3
SF-539 = system: SF-539
SN12C = system: SN12C
SNB-19 = system: SNB-19
SNB-75 = system: SNB-75
SR = system: SR
TK-10 = system: TK-10
UO-31 = system: UO-31

Row | Structure (SMILES) | GI50 (A549) | GI50 (ACHN) | GI50 (CAKI-1) | GI50 (CCRF-CEM) | GI50 (DU-145) | GI50 (HCT-15) [µM] | GI50 (Hs-578T) | GI50 (K562) | GI50 (KM12) | GI50 (LOX IMVI) | GI50 (OVCAR-5) | GI50 (PC-3) | GI50 (SF-539) | GI50 (SN12C) | GI50 (SNB-19) | GI50 (SNB-75) | GI50 (SR) | GI50 (TK-10) | GI50 (UO-31)
1 | CN(CC(=O)O)c1ncc2c(n1)-c1ccccc1OC2 | > 100 µM (inactive) | > 100 µM (inactive) | > 100 µM (inactive) | > 100 µM (inactive) | > 100 µM (inactive) | > 100 | > 100 µM (inactive) | > 100 µM (inactive) | > 100 µM (inactive) | > 100 µM (inactive) | > 100 µM (inactive) | > 100 µM (inactive) | > 100 µM (inactive) | > 100 µM (inactive) | > 100 µM (inactive) | > 100 µM (inactive) | > 100 µM (inactive) | > 100 µM (inactive) | > 100 µM (inactive)
2 | O=C1C=CC(=O)C1(Br)Br | 13.8 µM (inactive) | 6.75 µM (inactive) | 5.11 µM (inactive) | 7.55 µM (inactive) | 16 µM (inactive) | 6.53 | 17.9 µM (inactive) | 10.2 µM (inactive) | 13.1 µM (inactive) | 12.1 µM (inactive) | 10.7 µM (inactive) | 14.6 µM (inactive) | 16.4 µM (inactive) | 7.96 µM (inactive) | 17.1 µM (inactive) | 12 µM (inactive) | 3.42 µM (inactive) | 2.67 µM (inactive) | 6.27 µM (inactive)
3 | CCOC(=O)NN(C(=O)OCC)C(C(=O)c1ccccc1)N(NC(=O)OCC)C(=O)OCC | > 100 µM (inactive) | > 100 µM (inactive) | > 100 µM (inactive) | > 100 µM (inactive) | > 100 µM (inactive) | > 100 | > 100 µM (inactive) | > 100 µM (inactive) | > 100 µM (inactive) | > 100 µM (inactive) | > 100 µM (inactive) | > 100 µM (inactive) | > 100 µM (inactive) | > 100 µM (inactive) | > 100 µM (inactive) | > 100 µM (inactive) | > 100 µM (inactive) | > 100 µM (inactive) | > 100 µM (inactive)
4 | S=C(N/N=C\c1ccccn1)N(Cc1ccccn1)Cc1ccccn1 | 2.3 µM (inactive) | 0.316 µM (active) | 0.229 µM (active) | < 0.019 µM (active) | 2.29 µM (inactive) | 0.622 | 16 µM (inactive) | 0.205 µM (active) | 1.49 µM (inactive) | 0.646 µM (active) | 13 µM (inactive) | 6.89 µM (inactive) | 4.68 µM (inactive) | 0.34 µM (active) | 3.47 µM (inactive) | 5.43 µM (inactive) | 1.42 µM (inactive) | 0.637 µM (active) | 1.26 µM (inactive)
5 | O=P(O)(O)CN1CCNCCN(CP(=O)(O)O)CCNCC1 | 8.22 µM (inactive) | > 100 µM (inactive) | > 47.8 µM (inactive) | 3.52 µM (inactive) | > 100 µM (inactive) | 4.2 | > 100 µM (inactive) | 3.44 µM (inactive) | 6.84 µM (inactive) | 15.7 µM (inactive) | 10 µM (inactive) | 24.9 µM (inactive) | 11.7 µM (inactive) | > 100 µM (inactive) | > 100 µM (inactive) | > 51.6 µM (inactive) | 1.79 µM (inactive) | > 62.2 µM (inactive) | > 100 µM (inactive)
6 | CC(C)/C(Cl)=N/OC(NC(=O)Nc1ccc(Cl)c(Cl)c1)(C(F)(F)F)C(F)(F)F | 23.2 µM (inactive) | 12.2 µM (inactive) | 2.16 µM (inactive) | 2.16 µM (inactive) | 16.7 µM (inactive) | 13.2 | 28.6 µM (inactive) | 3.05 µM (inactive) | 18.2 µM (inactive) | 4.51 µM (inactive) | 19.7 µM (inactive) | 13.6 µM (inactive) | 17.4 µM (inactive) | 11 µM (inactive) | 20.2 µM (inactive) | 16.9 µM (inactive) | 3.56 µM (inactive) | 17.4 µM (inactive) | 17.3 µM (inactive)
7 | COc1ccc(CNc2nc(NCc3ccc(OC)cc3)nc(NC3CCCC3)n2)cc1 | 5.26 µM (inactive) | 4.47 µM (inactive) | 4.02 µM (inactive) | 2.24 µM (inactive) | 3.44 µM (inactive) | 3.19 | 3.07 µM (inactive) | 2.99 µM (inactive) | 0.28 µM (active) | 5.78 µM (inactive) | 3.63 µM (inactive) | 2.84 µM (inactive) | 2.75 µM (inactive) | > 19.8 µM (inactive) | 6.28 µM (inactive) | 16.4 µM (inactive) | 2.67 µM (inactive) | 3.26 µM (inactive) | 6.43 µM (inactive)
